According to a melting point compilation (Tetko et al.; mined from patent text by program, amines drawn as free bases though some values may be those of a salt):

SMILES	melting point [°C]
CCCOc1ccc(S(=O)(=O)Cl)cc1C(N)=O	122 to 129
O=C1Cc2cc(F)c(Cl)cc2N1	196 to 206
O=C(C(=O)N(CCO)CCO)c1ccc(OCCOc2ccc3ccccc3c2)cc1	128 to 133
CN1CCSC1=NCN1C(=O)CCC1=O	142 to 144
Nc1nc2c(ncn2[C@H]2CC[C@@H](CO)C2)c(=O)[nH]1	269
COC(=O)c1cscc1Nc1ccc(C(F)(F)F)cc1[N+](=O)[O-]	175
CC(C)(C)c1cc(Cl)c2c(c1)CNS(=O)(=O)O2	158 to 160
FC(F)(F)c1cccc2c1Sc1ccccc1NC2=S	265 to 267
CC(C)OC(=O)c1cc(-c2ccncc2)sc1-c1ccncc1	139 to 142
Cc1nc2ccc(Cl)cc2c(-c2ccc(F)cc2)c1CO	173 to 175
Cc1noc(NS(=O)(=O)c2ccc(Nc3ccc([N+](=O)[O-])cc3[N+](=O)[O-])cc2)c1C	187
CC1=C(CCC(C)(O)C#CCO)C(C)(C)CCC1 (centres undefined)	83 to 84
CCCc1c(OCCCSc2nnc(NC(=O)C(=O)OCC)s2)ccc(C(C)=O)c1O	146 to 147
COc1ccc2nc(NC(=O)C(CC3CCCC3)c3ccc(S(=O)(=O)CC(C)=O)cc3)sc2n1 (centres undefined)	67 to 71
COc1cc(C(C)=O)ccc1OC/C=C\CCl	64 to 66
O=C(CC1CCCCC1)Nc1c(Cl)ccc2nc(N3CCC(c4nnn[nH]4)CC3)ccc12	295 to 300
Cc1ccc(S(=O)(=O)OCC2COc3cc(Cl)c(Cl)cc3O2)cc1 (centres undefined)	124 to 125
COc1ccc(N2C(=O)C(O)=C(C(=O)c3ccc(C(C)C)cc3)C2c2ccc(OC(F)(F)F)cc2)nn1 (centres undefined)	271
O=C(O)c1ncsc1-c1cc(F)cc(F)c1	200
Nc1nc(CN2CCCN(C(c3ccccc3)c3ccccc3)CC2)cs1	152 to 156
C=CC(=O)OCCN(CCOC(=O)C=C)c1ccc(N=Nc2ccc([N+](=O)[O-])cc2)cc1	91 to 93
CCOC(=O)COc1cccc2c1oc1sc(Nc3ccccc3)nc12	196 to 198
Nc1ccc(C=C2SC(=O)NC2=O)cc1	265 to 270
O=C(O)COc1ccc(SCc2ccc(OCc3cc(Cl)cc(Cl)c3)cc2)c2c1CCC2	134 to 135
COc1ccc(OC)c(C(=O)/C=C/C(=C/C(=O)O)c2ccccc2)c1	165

SMILES	melting point [°C]
CCn1c(=O)c2[nH]c(/C=C/c3cc(OC)cc(OC)c3)nc2n(CC)c1=O	> 270
CC(C)(C)OC(=O)NCCCCNC(=O)COc1ccc(Cl)cc1Cl	107
Cc1cccc(-c2n[nH]cc2-c2ccc(F)c(-c3ccc(NC(=O)NN4CCOCC4)cc3)c2)n1	131 to 133
OC1CSC(Oc2ccc(-c3ccnc(F)c3)nc2)C(O)C1O (centres undefined)	219
O=C1c2cccc(-n3c(=O)[nH]c4cnccc4c3=O)c2C2CC3(CCN12)OCCO3 (centres undefined)	204
CCC1CC(=O)Nc2c1cnn2CC (centres undefined)	203 to 204
O=C(O)CC(Br)C(Br)c1ccc(Cl)cc1Cl (centres undefined)	184 to 185
CC(C)CC(COCC(N)=O)NC(=O)C1CCCN1C(=O)OCc1ccccc1 (centres undefined)	146 to 148
COc1ccc(CCN2C(=O)OC3(CCN(Cc4ccccc4)CC3)C2(C)O)cc1OC (centres undefined)	111 to 120
CC(C)c1ccc2nc3ccc(C#N)cc3c(=O)n2c1	207 to 211
O=C(O)c1ccc2c(c1)C(=O)CC(c1ccccc1)=N2	> 300
Cc1ccc(-c2c(C3CCN(C)CC3)[nH]c(=O)c3ccccc23)cc1	244 to 246
COc1ccc(-c2c3c(cc4ccc5c(c24)OCO5)C(=O)OC3)cc1OC	221 to 223
O=C(c1ccc(Cl)cc1)c1sc2cc(O)ccc2c1-c1ccccc1	222
COc1nc(C)cnc1NS(=O)(=O)c1cccnc1-c1ccc(NC(C)C)cc1	105 to 107
O=C(O)c1ccccc1-c1cc(-c2ccccc2)on1	144 to 146
Cc1cccc(-c2n[nH]cc2-c2ccc(F)c(-c3cnn(CCO)c3)c2)n1	132 to 135
CC(O)(CCCl)c1ccc(-c2cccc(Cl)c2)cc1 (centres undefined)	98 to 100
Cc1ccc(Nc2nc(CO)cs2)c(O)c1	188 to 190
Cc1c(NCC(C)(C)CNCC(O)COc2ccccc2)n(C)c(=O)n(C)c1=O (centres undefined)	111 to 112
Nc1nc(NCCOc2ccc(O)cc2)nc2nc(-c3ccco3)nn12	266 to 268
CCOC(=O)c1cnc2c(cnn2-c2ccccc2)c1N(Cc1ccccc1)S(=O)(=O)c1ccc(OC)cc1	124 to 126
Nc1ccccc1NC(=O)c1ccc(CNC(=O)COc2cccnc2)cc1	154 to 155
Cc1nc(C)nc(NC(=O)NS(=O)(=O)c2ccccc2C)n1	141 to 145
CCCC1CCc2cc(OC)c(Cl)c(Cl)c2C1=O (centres undefined)	127 to 129

SMILES	melting point [°C]
CCCOc1ccc(/C=C/c2nc3c([nH]2)c(=O)n(CC)c(=O)n3CC)cc1	> 270
Oc1cccc(Nc2nnc(Cc3ccncc3)c3ccccc23)c1	217 to 219
Cc1c(=O)n(Cc2ccccc2)c(=O)n2cc(C(=O)NCc3ccc(Cl)c(Cl)c3)sc12	180 to 182
O=C(Nc1cccc(-n2nc(C(F)(F)F)cc2C(F)(F)F)c1)c1ccc(F)cc1F	133 to 134
CCCCCCCNC(=O)Nc1ccc(N2CCCCC2)cc1C(=O)NCC1CCN(C(c2ccccc2)c2ccccc2)CC1	166 to 168
CC(=CCO)c1ccc(-c2ccccc2)cc1	112 to 114
CCOC(=O)C1CN(C2CC2)c2nc(Sc3ccc(C)cc3)c(F)cc2C1=O (centres undefined)	124 to 125
CCOCC(=O)Nc1c(NCCNC(=O)OC(C)(C)C)c(C)c(C)n2nnnc12	138 to 142
CC(C)(C)c1cc(CCc2ccccc2NC(=O)NC2CCN(Cc3cc(F)cc(F)c3)CC2)cc(C(C)(C)C)c1O	119 to 120
Cc1cccc(CC(=O)c2ccnc(-c3ccc(N4CCOCC4)cc3)c2)n1	114
CC(C)c1cccc(C(C)C)c1NC(=O)CCCCCSc1nc2cnccc2[nH]1	96 to 98
O=C(N[C@@H]1CN(C2CCCCC2)C[C@H]1O)c1ccc([N+](=O)[O-])cc1 (relative stereo)	156 to 157
CCCn1nc2c(N)nc3ccccc3c2c1CCNC(=O)NC(C)C	197 to 198
Fc1cc2c(c(-c3c(Cl)cccc3Cl)c1)OC(CNC1CC1)C2 (centres undefined)	112 to 113
O=C1CC(c2ccccc2)Cc2nccc(Cl)c21 (centres undefined)	71 to 72
CCCCc1c(NCCCO)cnn(C(C)(C)C)c1=O	106 to 108
Cc1ccc(S(=O)(=O)NN=C2C(=O)Nc3cccc(Cl)c32)cc1	195 to 196
CN(C(=O)COc1onc(C(F)(F)F)c1-c1ccccc1)c1ccccc1	93 to 94
CCC(CC)COC(=O)c1ccc(N)cc1	52 to 53
CCn1ncc(NCC(O)CO)c(Cl)c1=O (centres undefined)	120 to 124
CN(C)C1CC2c3ccccc3Cc3ccccc3N2C1 (centres undefined)	124 to 128
CC(C)(C)[Si](C)(C)Oc1ccccc1-c1cc(-c2ccc([N+](=O)[O-])cc2)c(C#N)c(NC(=O)c2cccs2)n1	168 to 169
O=[N+]([O-])c1c(F)c(F)c(O)c(Cl)c1F	107 to 109
CCC(Oc1cccc([N+](=O)[O-])c1)C(=O)NCc1ccccc1 (centres undefined)	114 to 116
CC(C)COP(C)(=O)CC(=O)CNC(=O)OC(C)(C)C (centres undefined)	65 to 68

SMILES	melting point [°C]
CCC(=O)OC1(C(=O)CCl)C(C)CC2C3CCC4CC(=O)CCC4(C)C3(F)C(=O)CC21C (centres undefined)	184 to 186
CCOC(=O)c1cnn(-c2ccc(Cl)c(Cl)c2)c1C#N	79 to 81
O=C1CC[C@@H](C(=O)N[C@@H](Cc2c[nH]cn2)C(=O)N[C@@H](Cc2c[nH]c3ccccc23)C(=O)OCc2ccccc2)N1	250 to 252
CSc1nc(CO)c(CO)n1-c1ccccc1	137 to 138
O=C(O)c1cc2ccccc2c(Cl)c1O	234 to 235
N#Cc1cc(F)c(-n2nc3ccc(Cl)cn3c2=O)cc1O	> 260
O=[N+]([O-])c1cnccc1Oc1ccc2[nH]ccc2c1	182 to 184
CC(=O)Nc1ccc(CC2CCN(CCS(=O)c3ccc4[nH]c(=O)oc4c3)CC2)cc1 (centres undefined)	104 to 105
Brc1ccc(-c2nc(-c3cccc(Br)c3)n(-c3ccccc3)n2)cc1	129 to 131
CC(=O)OC1CSC(Oc2cccnc2-c2cccnc2)C(OC(C)=O)C1OC(C)=O (centres undefined)	70
CC1(C)CCCc2cc(CC#Cc3ccc(C(=O)O)c(O)c3)ccc21	152 to 153
CCCCCCCCCCC(O)Cn1ccnc1-c1ccccn1 (centres undefined)	62 to 65
CCOC(=O)C1=C(C)NC(COCCN=[N+]=[N-])=C(C(=O)OC)C1c1cccc(Cl)c1Cl (centres undefined)	126
O=C(O)c1cccc(NC(=S)Nc2ccc3c(Cl)c(OCCBr)oc(=O)c3c2)c1	157 to 158
CCC1COC(NC(=O)c2ccc(Cl)c(Cl)c2)C2CCCCN12 (centres undefined)	214
CCC(CC)C(NS(=O)(=O)c1ccc(Cl)c(Cl)c1)c1ccnn1-c1ccccc1 (centres undefined)	56 to 66
Cn1cc(C(=O)CN2CCN(c3ncccn3)CC2)cc1C(=O)c1ccc([N+](=O)[O-])cc1	164 to 166
Cc1cccc2nc(CCl)cn12	120 to 121
CCc1ccc2nc(C)[nH]c(=O)c2c1	165 to 185
Cc1nc(CCO)c2n1-c1ccc(Cl)cc1C(c1ccccc1Cl)=NC2	170 to 171
Cc1ccc(CC(CNC(=O)C(C)c2ccc(NS(C)(=O)=O)cc2)COC(=O)C(C)(C)C)cc1C (centres undefined)	112 to 115
CCOCc1nc2c(N)nc(C)c(C)c2n1CCCCS(N)(=O)=O	200 to 202
CCCCCCCCCOc1cc(C(=O)Nc2c(Cl)cncc2Cl)ccc1OC	151 to 153
N#Cc1ccc(C(=O)OCc2ccc[nH]c2=O)cc1	200 to 203
